Measured values: patent US20230322822A1, “ARYL PHOSPHOROUS OXIDE COMPOUNDS AND USE THEREOF” (Chengdu Di'ao Jiuhong Pharmaceutical Factory, priority 2020, published 2023)
Read-outs that look alike come from different tables or passages of the source.

Experiments:
[1] = Pharmacokinetic test in SD rats; type: in vivo; conditions: male, Sprague-Dawley, rat, plasma, PO, 20 mg/kg
Method: Six SD rats were taken, which were all male, and about 8-9 weeks old, weighing about 430 g/rat, and fasting but allowed to drink water for 18 hours.
The rats were divided into two groups, wherein the rats in group 1 were dosed with compound 2 and the rats in group 2 were dosed with control compound 4, both orally and intragastrically in a dose of 20 mg/kg. A lavage fluid was prepared using 70 mM citric acid buffer (pH 3.0) at an administration volume of 5 mL/kg.
0.6 mL of blood (EDTA-2K anti-coagulated) was collected from rat orbits at 0.5, 1.5, 3, 4.5, 8, 12, 24, 36, 48 and 72 hours after the administration respectively. The plasma was separated and stored at −70° C., and the plasma samples were analyzed using liquid chromatography tandem mass spectrometry (LC-MS/MS). The plasma concentration-time data of the individual rates was analyzed using a non-compartmental model of DAS3.3.1 software and pharmacokinetic parameters of the test compounds were calculated.

[2] = test system: BaF3 EML-4-ALK-L1196M cell line; test: Cell anti-proliferation test 4 (CCK-8), BaF3 EML-4-ALK-L1196M; type: cell-based; conditions: Ba/F3 EML4-ALK-L1196M, BaF3 EML-4-ALK-L1196M cells, CCK-8, 72 hours
Method: BaF3 EML-4-ALK-L1196M cell line, brand: KYinno, article number: KC-0102
Cell Counting Kit-8 (CCK-8), brand: Targetmol, article number: C0005
10 μL of the compound diluted in gradient was added to the cell plate to give final concentrations of the compounds as 500, 166.67, 55.56, 18.52, 6.17, 2.06, 0.69, 0.23 and 0.08 nM. • d.

AUC(0-t) [1]: 58500 ng·h/mL | Cmax [1]: 1420 ng/mL | IC50 ([2]; first test, read-out: First test IC50): 81.5 nM | IC50 ([2]; second test, read-out: Second test IC50): 74.6 nM
Compound: CCc1cc(Nc2ncc(Br)c(Nc3ccc(C4CC4)cc3P(C)(C)=O)n2)c(OC)cc1N1CCC(N2CCN(C)CC2)CC1 [Control compound 4, reference compound]
